This is an account of results in patent publication US6368618B1, “Composition and method for enhanced transdermal absorption of nonsteroidal anti-inflammatory drugs” (The University of Georgia Research Foundation, Inc., priority 1999, dated 2002).

Common to all, as to type: physicochemical
A short description of data set [1]: Melt state of ibuprofen in aqueous isopropyl alcohol (optical microscope). On the set-up: key: S: solid crystals present (FIG. 1-B); O: no crystals present (FIG. 1-A). The note with it: 25° C. The source says: The total weight of each mixture was 10 g.
FIG. 1-A represents a two phase melt system with homogeneous oil and aqueous phases, and FIG. 1-B represents a system where complete melt is not achieved. […] (FIG. 1-B). […] (FIG. 1-A).

Data set [2] in a line: Melt state of ibuprofen and thymol in aqueous isopropyl alcohol. The note with it: racemic ibuprofen in place of S(+)-ibuprofen, with thymol and aqueous IPA, samples as in Table 3, 25° C. Here is the method: (10 g total weight). Replicate samples of these mixtures were prepared at 25° C. and were stored at 25, 15, and 4° C. for three months. During storage, the melt states of the composition were examined weekly using an optical microscope. The results are shown in Table 3, where O and S denote systems described as in FIG. 1-A and 1-B, respectively, at the corresponding temperature. […] The lower the SI:T ratio and the higher the alcohol content, the lower the melting range of the solid components in the mixture, as shown by the attainment of the melt state. […] Thus the use of thymol and aqueous isopropyl alcohol in combination allows the preparation of two phase melt systems with the highest possible SI:T ratio and the lowest isopropyl alcohol content at 25° C.

Data set [3] is described as follows: Melt state of physical mixtures of S(+)-ibuprofen and thymol. The note with it: physical mixtures with thymol. The source says: The melt states of the two compounds were then examined weekly for 3 months using an optical microscope.
Data set [4] in a line: Composition of the oil phase of two phase melt systems by GC-MS. The note with it: oil phase of dispersion with 15% isopropyl alcohol, no thymol. On the procedure:
The composition of the oil phase formed in the dispersion containing 15% isopropyl alcohol was determined by the gas chromatrography-mass spectrometry (GC-MS) analysis.
After ultracentrifugation at 20,000 rpm for 30 minutes at 25° C. of selected two phase melt systems (Systems I, II, III and IV as shown in Table 3) that had been stored at 25° C. for three months, a portion of the oil phase of these melt systems was removed using a micro-sampling tube and was weighed accurately by a taring method.

As to `CC(C)Cc1ccc(C(C)C(=O)O)cc1` (racemic) [racemic ibuprofen, a-methyl-4-(2-methylpropyl) benzene-acetic acid], the Melt state result is “complete melt was never achieved” in data set [1] (racemic ibuprofen in place of S(+)-ibuprofen, samples as in Table 2, even at 25% IPA or higher) and “complete melt of the solids was never achieved” in data set [2].

As to `CC(C)Cc1ccc([C@H](C)C(=O)O)cc1` [S(+)-ibuprofen, a-methyl-4-(2-methylpropyl) benzene-acetic acid], the Melt state entry is “S” in data set [1] (5% S(+)-ibuprofen, 5% IPA, pH 4.0 acetate buffer, 3 months); “S” in data set [1] (5% S(+)-ibuprofen, 10% IPA, pH 4.0 acetate buffer, 3 months); “O” in data set [1] (5% S(+)-ibuprofen, 15% IPA, pH 4.0 acetate buffer, 3 months); “O” in data set [1] (5% S(+)-ibuprofen, 20% IPA, pH 4.0 acetate buffer, 3 months); “did not completely melt” in data set [1] (isopropyl alcohol 10% or less by weight of total composition); “completely transformed into an oil” in data set [1] (isopropyl alcohol 15% or higher). Moreover, the Melt state result in data set [3] (SI:T ratios 5:5 to 6:4 (w:w), ambient temperature (20-25° C.)) is on record as “spontaneously formed a homogeneous oil”; in data set [3] (SI:T ratios outside 5:5 to 6:4 (1:9 to 9:1 tested), 25° C.) it was “complete melting of the compounds did not occur”. Also, the “concentration of S(+)-ibuprofen in the oil” value in data set [4] was 68.4 % (w:w).
